Data taken from PubChem BioAssay (NCI).
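Results reflect a 48-hour exposure of cells in 96-well plates to compound at five concentrations. At the GI50, growth is halved. TGI: total growth inhibition.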

Assays:
Experiment in all cases: DTP human tumour cell line panel, 48 h
CCRF-CEM leukemia = system: CCRF-CEM leukemia
HCC-2998 colon = system: HCC-2998 colon
HCT-15 colon = system: HCT-15 colon
MDA-MB-435 = system: MDA-MB-435
NCI-H522 lung = system: NCI-H522 lung
OVCAR-4 ovarian = system: OVCAR-4 ovarian
SF-539 CNS = system: SF-539 CNS
SNB-19 CNS = system: SNB-19 CNS
UACC-62 melanoma = system: UACC-62 melanoma
RXF 393 renal = system: RXF 393 renal

Row | SMILES | TGI (CCRF-CEM leukemia) [µM] | TGI (HCC-2998 colon) [µM] | TGI (HCT-15 colon) [µM] | TGI (MDA-MB-435) [µM] | TGI (NCI-H522 lung) [µM] | TGI (OVCAR-4 ovarian) [µM] | TGI (SF-539 CNS) [µM] | TGI (SNB-19 CNS) [µM] | TGI (UACC-62 melanoma) [µM] | GI50 (HCC-2998 colon) [µM] | GI50 (HCT-15 colon) [µM] | GI50 (MDA-MB-435) [µM] | GI50 (NCI-H522 lung) [µM] | GI50 (RXF 393 renal) [µM] | TGI (RXF 393 renal) [µM] | GI50 (SF-539 CNS) [µM] | GI50 (SNB-19 CNS) [µM] | GI50 (UACC-62 melanoma) [µM] | GI50 (OVCAR-4 ovarian) [µM] | GI50 (CCRF-CEM leukemia) [µM]
1 | CC1(C)CCCC(C)(C2CCC3(C)C2C(O)CC2C4(C)CCC(O)C(C)(C)C4C(O)CC23C)O1 (stereo unspecified) | 8.67 | 27.9 | 24.7 | 30.3 | 29.8 | 26 | 28.1 | 25.5 | 27.5 |  |  |  |  |  |  |  |  |  |  | 
2 | CCN(CC)CCOc1ccc(/C=C2\C[C@H]3[C@H]4CC=C5C[C@@H](O)CC[C@]5(C)[C@H]4CC[C@]3(C)[C@H]2O)cc1OC |  | 20.6 | 18.5 | 16.5 | > 50 |  | 9.82 | > 50 | 14.5 | 11.6 | 9.19 | 7.75 | 0.216 | 13.4 | 39.3 | 1.43 | 17.1 | 7.53 |  | 
3 | Cn1cc(-c2csc(-c3cn(CCCCN4CCCCC4)c4ccc(F)cc34)n2)c2cccnc21 |  | 3.08 | 3.06 | 2.84 |  | 2.94 |  |  |  | 1.59 | 1.7 | 1.52 |  | 1.52 | 3.04 |  |  |  | 1.59 | 
4 | Cn1c2ccccc2c(=O)c2c(O)cc3c(c21)CC(C1(C)CO1)O3 (stereo unspecified) |  | 5.4 | 30.6 | 3.07 | 9.79 | 31.2 | 10.8 | 26.9 | 4.9 |  |  |  |  |  | 2.85 |  |  |  |  | 
5 | O=C(NNc1ccc(F)cc1)C1CCC(CNS(=O)(=O)c2ccc(Cl)c(Cl)c2)CC1 (stereo unspecified) | > 50 |  | > 50 | 35.1 | > 50 | 47 | 39.1 | > 50 | 23.4 |  | 7.63 | 2.01 | 22.8 |  |  | 9.77 | > 50 | 1.98 | 9.02 | 16.1
6 | O=S(=O)(c1ccc(Br)cc1)N1CCN(S(=O)(=O)c2ccc(Br)cc2)CC1 | > 100 |  | > 100 | > 100 | > 100 | > 100 |  | > 100 | > 100 |  |  |  |  |  | > 100 |  |  |  |  | 
7 | COc1ccc2c(Cc3c4ccccc4cc4ccccc34)cncc2c1O | 3.04 |  | > 22 | 0.622 | 21.2 | > 74.2 | 0.546 | > 41.6 | > 44.2 |  |  |  |  |  | > 21.6 |  |  |  |  | 
8 | CSc1ccc(OCC2OC2O)cc1 (stereo unspecified) | > 100 | > 100 | > 54.2 |  | > 81.6 | > 100 | > 100 | > 100 | > 100 |  |  |  |  |  | > 100 |  |  |  |  | 
9 | NCCCCCCCCCCCn1c2c(c3ccccc3c1=O)C(=O)c1ccccc1-2 |  | 9.72 | 19.4 | 47.9 | 10.4 | 8.63 | 40.2 | 38.9 | 35 | 2.76 | 5.58 | 11 | 3.39 | 24.3 | 82.3 | 20.6 | 6.77 | 16.9 | 2.86 | 
10 | Cc1cc(=O)n2c3c(c4c(cc13)c(CO)cc(=O)n4C)OC2 | 56.8 | 44.8 |  |  | 17.7 | > 100 | 51.5 | > 100 | 25.9 |  |  |  |  |  |  |  |  |  |  | 
11 | CC(=O)[CH-]C(=O)c1ccccc1.CC(=O)[CH-]C(=O)c1ccccc1.CC[C@H](/C=C/C(C)[C@H]1CCC2[C@@H]3CC=C4C[C@@H]([O-])CC[C@]4(C)C3CC[C@@]21C)C(C)C.CC[O-].[Ti+4] (stereo partly specified) | > 100 | > 100 | > 100 |  | > 100 | > 100 | > 100 | > 100 | > 100 | > 100 | > 100 |  | 44.8 | 84.4 | > 100 | > 100 | > 100 | > 100 | > 100 | 61.4
12 | Cc1cc(Cl)ccc1NC(=O)CCCC(=O)C1CCC/C1=N\NC(=O)CC#N (stereo unspecified) | > 100 |  | > 100 |  | > 100 | > 100 | > 100 | > 100 | > 100 |  |  |  |  |  |  |  |  |  |  | 
13 | C1COCCOCCOCCOCCOCCO1.[Cl][Sn]([Cl])([c]1ccccc1)[c]1ccccc1 |  | 18.9 | 13.5 |  | 2.05 | 26.3 | 8.53 | 14.5 | 4.12 | 6.06 | 4.14 |  | 0.766 | 2.21 | 4.06 | 2.94 | 6.48 | 1.86 | 12.3 | 
14 | O=C(N/C(=C\c1ccc(/C=C(\NC(=O)c2ccccc2)c2nc3cc(Cl)ccc3[nH]2)cc1)c1nc2cc(Cl)ccc2[nH]1)c1ccccc1 | > 100 |  | 76.1 |  | 53.8 | 87 | 78.5 | > 100 | 65 |  |  |  |  |  | 85.3 |  |  |  |  | 
15 | CSCC[C@H](NC(=O)[C@H](CC(C)C)NC(=O)[C@@H](Cc1ccccc1)NC(=O)CNC(=O)[C@@H](NC(=O)[C@H](C)NC(=O)[C@H](Cc1c[nH]c2ccccc12)NC(=O)[C@H](CCC(N)=O)NC(=O)[C@H](N)CC(N)=O)C(C)C)C(N)=O | > 12.5 | > 12.5 | > 12.5 | > 12.5 |  | > 12.5 | > 12.5 | > 12.5 | > 12.5 |  |  |  |  |  | > 12.5 |  |  |  |  | 
16 | CCC(C)[C@H](NC(=O)NC(=O)NC(=O)CI)C(=O)OC (stereo partly specified) |  | 26.9 | 3.42 | 22.3 | 3.01 | 8.68 | 22.8 | 31.6 | 24.7 | 13.7 | 1.76 | 10.5 | 1.51 | 4.51 | 15.2 | 10.3 | 15.4 | 11.3 | 2.48 | 
17 | COc1cccc(NC(=O)C(C)(C)C)c1SSc1c(NC(=O)C(C)(C)C)cccc1OC | > 89.5 | > 100 | 44.4 |  | 27.2 | > 56.3 | 45.5 | > 100 | 45.4 |  |  |  |  |  | 35.3 |  |  |  |  | 
